Experimental data: patent US9403823B2, “Protein kinase inhibitors” (ORIBASE PHARMA, priority 2012, dated 2016)
Like-named read-outs stand apart in the source and are kept apart here.

Legend:
A549 cell line = assay: In vitro cell proliferation assay (MTT), A549; type: cell-based; conditions: Homo sapiens, read-out: EC50, anti-proliferative activity
Description: (§1) 2) In Vitro Cell Proliferation Assays (Table 22 to Table 35)
(§2) Cancer cell lines (5×10^3 cells per well) or HUVEC (1×10^4 cells per well) or HRMEC (1×10^4 cells per well) were distributed in 96-well plates and incubating in duplicate with escalating concentrations (10 nM to 3 μM) of compounds for 72 hr. Cell proliferation was measured using MTT (3[4,5-dimethylthiazol-2-yl]-2,5-diphenyltetrazolium bromide).

BRAF = molecular target: T1, BRAF (Homo sapiens, UniProt P15056); assay: In vitro kinase assay (Z'-LYTE), BRAF; type: biochemical; conditions: read-out: % of inhibition of the kinase compared to the control
T1 construct: purchased Invitrogen
Description: (§3) 1) In Vitro Kinase Assays (Table 10 to Table 21)
(§4) The inhibitory activity of the compounds on several kinases including BRAF, EGFR (ErbB1), EGFR (ErbB1) T790M L858R, FGFR2, KDR (VEGFR2), PDGFRA (PDGFR alpha), SRC and other was evaluated by Invitrogen using the Z′-LYTE® technology. Briefly, the Z′-LYTE® biochemical assay employs a fluorescence-based, coupled-enzyme format and is based on the differential sensitivity of phosphorylated and non-phosphorylated peptides to proteolytic cleavage. The peptide substrate is labeled with two fluorophores—one at each end—that make up a FRET pair. A ratiometric method, which calculates the ratio (the Emission Ratio) of donor emission to acceptor emission after excitation of the donor fluorophore at 400 nm, is used to quantitate reaction progress.
(§5) The compounds are screened in 1% DMSO (final) in the well. For 10 point titrations, 3-fold serial dilutions are conducted from the starting concentration. All Peptide/Kinase Mixtures are diluted to a 2× working concentration in the appropriate Kinase Buffer. All ATP Solutions are diluted to a 4× working concentration in Kinase Buffer (50 mM HEPES pH 7.5, 0.01% BRIJ-35, 10 mM MgCl2, 1 mM EGTA). ATP Km apparent is previously determined using a Z′-LYTE® assay.
(§6) Each compound was incubated at a concentration of 100 nM (excepted to test the activity against ABL and ABL T315I for which the compounds were incubated at a concentration of 10 μM) and the tables 10 to 21 summarize the results obtained showing the inhibitory power of a compound.

EGFR (ErbB1) = molecular target: T2, EGFR (ErbB1) (Homo sapiens, UniProt P00533); assay: In vitro kinase assay (Z'-LYTE), EGFR (ErbB1); type: biochemical; conditions: read-out: % of inhibition of the kinase compared to the control
T2 construct: purchased Invitrogen
T2 sequence (P00533 25-1210): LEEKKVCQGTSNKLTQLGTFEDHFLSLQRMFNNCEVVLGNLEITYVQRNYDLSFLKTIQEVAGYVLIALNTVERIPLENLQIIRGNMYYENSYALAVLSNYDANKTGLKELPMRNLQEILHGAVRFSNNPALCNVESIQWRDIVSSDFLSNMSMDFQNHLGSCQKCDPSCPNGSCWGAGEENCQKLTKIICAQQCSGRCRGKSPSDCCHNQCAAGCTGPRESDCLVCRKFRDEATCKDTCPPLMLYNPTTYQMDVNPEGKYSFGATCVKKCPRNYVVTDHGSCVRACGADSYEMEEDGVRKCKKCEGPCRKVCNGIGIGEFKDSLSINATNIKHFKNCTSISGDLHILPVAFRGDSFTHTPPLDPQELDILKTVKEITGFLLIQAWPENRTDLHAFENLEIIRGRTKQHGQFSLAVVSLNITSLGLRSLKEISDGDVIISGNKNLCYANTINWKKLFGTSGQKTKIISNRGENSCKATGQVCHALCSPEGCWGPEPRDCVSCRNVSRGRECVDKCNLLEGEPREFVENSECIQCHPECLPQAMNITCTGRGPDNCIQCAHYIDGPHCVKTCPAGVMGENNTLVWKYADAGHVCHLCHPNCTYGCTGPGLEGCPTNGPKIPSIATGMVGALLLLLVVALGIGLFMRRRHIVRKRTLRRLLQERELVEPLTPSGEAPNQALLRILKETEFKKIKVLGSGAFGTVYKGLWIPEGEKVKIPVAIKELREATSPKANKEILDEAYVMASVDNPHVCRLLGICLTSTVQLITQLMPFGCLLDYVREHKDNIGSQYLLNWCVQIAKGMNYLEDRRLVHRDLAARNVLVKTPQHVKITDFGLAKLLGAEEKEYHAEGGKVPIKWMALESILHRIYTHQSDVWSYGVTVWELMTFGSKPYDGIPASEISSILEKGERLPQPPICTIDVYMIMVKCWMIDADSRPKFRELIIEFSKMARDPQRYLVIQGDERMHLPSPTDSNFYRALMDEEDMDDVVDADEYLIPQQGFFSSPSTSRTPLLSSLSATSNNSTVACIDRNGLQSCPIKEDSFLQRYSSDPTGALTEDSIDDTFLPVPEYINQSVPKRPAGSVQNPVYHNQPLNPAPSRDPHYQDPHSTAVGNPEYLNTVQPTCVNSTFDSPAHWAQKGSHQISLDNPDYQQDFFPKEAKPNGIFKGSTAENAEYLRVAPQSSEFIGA
Description: as §3, §4, §5, §6

FGFR2 = molecular target: T3, FGFR2 (Homo sapiens, UniProt P21802); assay: In vitro kinase assay (Z'-LYTE), FGFR2; type: biochemical; conditions: read-out: % of inhibition of the kinase compared to the control
T3 construct: purchased Invitrogen
T3 sequence (P21802 22-821): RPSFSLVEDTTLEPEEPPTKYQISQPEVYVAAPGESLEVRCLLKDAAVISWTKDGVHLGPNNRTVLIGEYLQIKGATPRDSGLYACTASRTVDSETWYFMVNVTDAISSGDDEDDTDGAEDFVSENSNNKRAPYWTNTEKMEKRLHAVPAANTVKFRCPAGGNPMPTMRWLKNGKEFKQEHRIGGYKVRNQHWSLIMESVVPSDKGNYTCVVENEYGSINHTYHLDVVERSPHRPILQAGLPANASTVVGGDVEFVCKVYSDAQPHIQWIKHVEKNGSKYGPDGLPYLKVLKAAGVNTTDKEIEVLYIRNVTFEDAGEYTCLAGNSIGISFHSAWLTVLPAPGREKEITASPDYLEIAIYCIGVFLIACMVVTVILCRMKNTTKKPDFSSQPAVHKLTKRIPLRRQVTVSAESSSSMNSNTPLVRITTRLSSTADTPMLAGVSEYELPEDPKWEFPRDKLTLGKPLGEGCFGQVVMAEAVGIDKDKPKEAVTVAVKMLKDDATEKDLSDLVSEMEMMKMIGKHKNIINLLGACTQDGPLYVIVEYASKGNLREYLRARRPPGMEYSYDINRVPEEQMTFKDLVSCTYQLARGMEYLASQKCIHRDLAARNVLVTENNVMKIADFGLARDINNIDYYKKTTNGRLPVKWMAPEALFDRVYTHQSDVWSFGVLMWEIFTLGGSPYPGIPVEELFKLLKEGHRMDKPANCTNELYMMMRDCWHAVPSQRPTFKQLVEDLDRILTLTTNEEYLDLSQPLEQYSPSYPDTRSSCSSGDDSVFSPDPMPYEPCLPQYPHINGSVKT
Description: as §3, §4, §5, §6

KDR (VEGFR2) = molecular target: T4, KDR (VEGFR2) (Homo sapiens, UniProt P35968); assay: In vitro kinase assay (Z'-LYTE), KDR (VEGFR2); type: biochemical; conditions: read-out: % of inhibition of the kinase compared to the control
T4 construct: purchased Invitrogen
T4 sequence (P35968 20-1356): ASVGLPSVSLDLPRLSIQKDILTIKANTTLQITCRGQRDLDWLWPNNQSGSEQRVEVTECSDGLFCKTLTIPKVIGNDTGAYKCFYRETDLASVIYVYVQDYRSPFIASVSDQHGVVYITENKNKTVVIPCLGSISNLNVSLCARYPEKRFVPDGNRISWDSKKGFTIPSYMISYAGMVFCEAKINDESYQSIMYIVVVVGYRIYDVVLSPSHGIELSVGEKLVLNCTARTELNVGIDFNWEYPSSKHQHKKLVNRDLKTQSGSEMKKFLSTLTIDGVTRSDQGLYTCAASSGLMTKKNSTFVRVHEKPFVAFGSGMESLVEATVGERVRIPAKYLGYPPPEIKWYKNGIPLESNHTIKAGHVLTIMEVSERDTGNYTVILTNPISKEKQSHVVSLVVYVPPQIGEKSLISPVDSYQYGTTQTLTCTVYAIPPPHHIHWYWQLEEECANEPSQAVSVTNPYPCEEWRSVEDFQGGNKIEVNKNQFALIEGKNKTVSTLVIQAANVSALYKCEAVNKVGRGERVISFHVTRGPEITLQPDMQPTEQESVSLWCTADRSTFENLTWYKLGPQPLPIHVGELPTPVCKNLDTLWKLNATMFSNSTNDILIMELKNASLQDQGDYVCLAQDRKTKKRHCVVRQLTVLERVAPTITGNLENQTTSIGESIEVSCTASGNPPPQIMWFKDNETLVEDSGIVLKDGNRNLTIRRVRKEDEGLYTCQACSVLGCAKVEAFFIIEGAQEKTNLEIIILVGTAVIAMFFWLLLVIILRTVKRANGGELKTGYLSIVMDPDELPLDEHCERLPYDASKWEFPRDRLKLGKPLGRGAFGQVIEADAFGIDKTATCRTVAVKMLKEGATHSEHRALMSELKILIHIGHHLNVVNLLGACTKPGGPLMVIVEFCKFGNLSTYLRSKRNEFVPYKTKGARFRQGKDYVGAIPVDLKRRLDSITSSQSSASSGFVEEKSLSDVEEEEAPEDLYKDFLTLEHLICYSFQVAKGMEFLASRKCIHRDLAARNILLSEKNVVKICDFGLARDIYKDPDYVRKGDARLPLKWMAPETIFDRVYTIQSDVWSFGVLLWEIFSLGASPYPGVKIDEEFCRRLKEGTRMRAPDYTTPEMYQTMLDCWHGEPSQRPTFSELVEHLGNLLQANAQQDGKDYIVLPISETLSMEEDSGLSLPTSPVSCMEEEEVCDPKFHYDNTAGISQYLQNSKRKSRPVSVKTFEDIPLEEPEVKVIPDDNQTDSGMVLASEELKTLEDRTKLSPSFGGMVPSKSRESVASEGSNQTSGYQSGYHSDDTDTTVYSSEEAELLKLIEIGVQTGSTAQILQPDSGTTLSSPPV
Description: as §3, §4, §5, §6

PDGFRA (PDGFR alpha) = molecular target: T5, PDGFRA (PDGFR alpha) (Homo sapiens, UniProt P16234); assay: In vitro kinase assay (Z'-LYTE), PDGFRA; type: biochemical; conditions: read-out: % of inhibition of the kinase compared to the control
T5 construct: purchased Invitrogen
T5 sequence (P16234 24-1089): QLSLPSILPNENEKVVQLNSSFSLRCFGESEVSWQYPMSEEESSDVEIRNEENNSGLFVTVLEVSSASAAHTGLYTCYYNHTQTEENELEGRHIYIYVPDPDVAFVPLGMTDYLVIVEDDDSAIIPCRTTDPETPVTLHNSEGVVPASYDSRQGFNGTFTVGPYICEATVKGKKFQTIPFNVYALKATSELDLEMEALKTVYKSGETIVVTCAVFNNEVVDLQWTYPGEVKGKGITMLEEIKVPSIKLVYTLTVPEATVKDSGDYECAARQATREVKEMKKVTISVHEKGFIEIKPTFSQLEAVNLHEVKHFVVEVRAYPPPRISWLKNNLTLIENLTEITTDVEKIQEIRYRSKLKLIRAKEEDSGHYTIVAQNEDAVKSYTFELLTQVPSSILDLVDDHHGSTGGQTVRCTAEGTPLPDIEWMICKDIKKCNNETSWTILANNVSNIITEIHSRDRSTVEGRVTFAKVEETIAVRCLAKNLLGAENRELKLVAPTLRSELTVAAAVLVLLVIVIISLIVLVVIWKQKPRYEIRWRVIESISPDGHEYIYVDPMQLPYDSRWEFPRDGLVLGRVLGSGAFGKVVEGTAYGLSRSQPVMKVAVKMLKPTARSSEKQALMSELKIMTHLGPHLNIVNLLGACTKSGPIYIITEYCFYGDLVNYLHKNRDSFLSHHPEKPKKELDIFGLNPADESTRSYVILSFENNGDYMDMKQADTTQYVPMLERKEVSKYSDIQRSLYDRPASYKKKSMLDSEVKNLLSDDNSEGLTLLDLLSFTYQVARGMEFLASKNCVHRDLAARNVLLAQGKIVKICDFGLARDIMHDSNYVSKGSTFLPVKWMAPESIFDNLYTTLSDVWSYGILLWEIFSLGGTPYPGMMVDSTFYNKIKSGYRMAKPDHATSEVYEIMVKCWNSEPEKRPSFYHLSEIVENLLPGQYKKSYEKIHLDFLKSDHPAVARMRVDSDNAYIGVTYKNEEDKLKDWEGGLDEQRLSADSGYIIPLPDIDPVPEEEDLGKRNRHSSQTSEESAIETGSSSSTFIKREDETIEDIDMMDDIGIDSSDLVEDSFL
Description: as §3, §4, §5, §6

SRC = molecular target: T6, SRC (Homo sapiens, UniProt P12931); assay: In vitro kinase assay (Z'-LYTE), SRC; type: biochemical; conditions: read-out: % of inhibition of the kinase compared to the control
T6 construct: purchased Invitrogen
T6 sequence (P12931 whole entry): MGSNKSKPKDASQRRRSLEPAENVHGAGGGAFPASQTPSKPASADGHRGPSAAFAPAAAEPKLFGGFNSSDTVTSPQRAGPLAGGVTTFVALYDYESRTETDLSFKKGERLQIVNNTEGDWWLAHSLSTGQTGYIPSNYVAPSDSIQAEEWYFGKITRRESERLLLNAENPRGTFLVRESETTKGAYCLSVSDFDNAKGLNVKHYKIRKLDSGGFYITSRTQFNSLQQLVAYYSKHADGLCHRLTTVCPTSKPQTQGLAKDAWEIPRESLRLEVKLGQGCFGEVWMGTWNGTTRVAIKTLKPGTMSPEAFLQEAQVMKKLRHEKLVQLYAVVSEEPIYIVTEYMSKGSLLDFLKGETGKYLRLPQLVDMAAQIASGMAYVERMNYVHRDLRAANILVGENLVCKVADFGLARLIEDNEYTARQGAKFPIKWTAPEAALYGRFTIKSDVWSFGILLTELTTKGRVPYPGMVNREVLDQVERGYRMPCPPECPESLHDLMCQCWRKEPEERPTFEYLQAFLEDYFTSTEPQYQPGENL
Description: as §3, §4, §5, §6

HepG2 cell line = assay: In vitro cell proliferation assay (MTT), HepG2; type: cell-based; conditions: Homo sapiens, read-out: EC50, anti-proliferative activity
Description: as §1, §2

HUVEC = assay: In vitro cell proliferation assay (MTT), HUVEC; type: cell-based; conditions: Homo sapiens, read-out: EC50, anti-proliferative activity
Description: as §1, §2

MDA-MB-231 cell line = assay: In vitro cell proliferation assay (MTT), MDA-MB-231; type: cell-based; conditions: Homo sapiens; MDA-MB-231, 72 hr, MTT; read-out: EC50, anti-proliferative activity
Description: as §1, §2

EC50 (A549 cell line; A549, 72 h) [nM]	inhibition at 0.1 µM (BRAF) [%]	inhibition at 0.1 µM (EGFR (ErbB1)) [%]	inhibition at 0.1 µM (FGFR2) [%]	inhibition at 0.1 µM (KDR (VEGFR2)) [%]	inhibition at 0.1 µM (PDGFRA (PDGFR alpha)) [%]	inhibition at 0.1 µM (SRC) [%]	EC50 (HepG2 cell line; HepG2, 72 h) [nM]	EC50 (A549 cell line; A549, 72 hr, MTT) [nM]	EC50 (HepG2 cell line; HepG2, 72 hr, MTT) [nM]	EC50 (MDA-MB-231 cell line) [nM]	SMILES	EC50 (HUVEC; 72 hr, MTT) [nM]	EC50 (HUVEC; 72 h) [nM]
100 to 1000											CCN(CC)C(=O)c1cc2cc(NCc3cc(NC(=O)c4ccc(CN5CCN(C)CC5)c(C(F)(F)F)c4)ccc3C)cnc2[nH]1 [OR1076, 5-{2-Methyl-5-[4-(4-methyl-piperazin-1-ylmethyl)-3-trifluoromethyl-benzoylamino]-benzylamino}-1H-pyrrolo[2,3-b]pyridine-2-carboxylic acid diethylamide]		
	< 50	< 50	< 50	< 50	≥ 50	< 50	100 to 1000				CC(=O)c1cc2cc(NCc3cc(NC(=O)Nc4cccc(C(F)(F)F)c4)ccc3C)cnc2[nH]1 [OR0895, 1-{3-[(2-Acetyl-1H-pyrrolo[2,3-b]pyridin-5-ylamino)-methyl]-4-methyl-phenyl}-3-(3-trifluoromethyl-phenyl)-urea]	≥ 1000	
	≥ 50	< 50	< 50	< 50	≥ 50	< 50	100 to 1000				CC(=O)c1cc2cc(NCc3cc(NC(=O)Cc4cccc(C(F)(F)F)c4)ccc3C)cnc2[nH]1 [OR0968, N-{3-[(2-Acetyl-1H-pyrrolo[2,3-b]pyridin-5-ylamino)-methyl]-4-methyl-phenyl}-2-(3-trifluoromethyl-phenyl)-acetamide]	≥ 1000	
	< 50	≥ 50	< 50	< 50	≥ 50	≥ 50		≥ 1000	≥ 1000	≥ 1000	Cc1ccc(NC(=O)c2cncc(C(F)(F)F)c2)cc1C(=S)Nc1cnc2[nH]c(C(=O)O)cc2c1 [OR1053]	≥ 1000	
	≥ 50	< 50	< 50	≥ 50	≥ 50	≥ 50			≥ 1000		CC(=O)c1cc2cc(NCc3cc(NC(=O)c4cncc(C)c4)ccc3C)cnc2[nH]1 [OR0888, N-{3-[(2-Acetyl-1H-pyrrolo[2,3-b]pyridin-5-ylamino)-methyl]-4-methyl-phenyl}-5-methyl-nicotinamide]		100 to 1000
	< 50	< 50	< 50	< 50	< 50	< 50	≤ 100				CC(=O)c1cc2cc(NC(=O)c3cc(NC(=O)Nc4cccc(C(F)(F)F)c4)ccc3C)cnc2[nH]1 [OR0951, N-(2-Acetyl-1H-pyrrolo[2,3-b]pyridin-5-yl)-2-methyl-5-[3-(3-trifluoromethyl-phenyl)-ureido]-benzamide]	≥ 1000	
	≥ 50	< 50	< 50	< 50	≥ 50	< 50			≥ 1000		CC(=O)c1cc2cc(NCc3cc(NC(=O)c4cc[nH]c4)ccc3C)cnc2[nH]1 [OR0986, 1H-Pyrrole-3-carboxylic acid {3-[(2-acetyl-1H-pyrrolo[2,3-b]pyridin-5-ylamino)-methyl]-4-methyl-phenyl}-amide]	≥ 1000	
	≥ 50	< 50	< 50	< 50	≥ 50	< 50	100 to 1000				CC(=O)c1cc2cc(NCc3cc(NC(=O)c4ccc5[nH]ccc5c4)ccc3C)cnc2[nH]1 [OR0980, 1H-Indole-5-carboxylic acid {3-[(2-acetyl-1H-pyrrolo[2,3-b]pyridin-5-ylamino)-methyl]-4-methyl-phenyl}-amide]	≥ 1000	
	< 50	< 50	< 50	< 50	< 50	< 50			≥ 1000		CC(=O)c1cc2cc(NCc3cc(NS(=O)(=O)c4cccc(C(F)(F)F)c4)ccc3C)cnc2[nH]1 [OR0930, N-{3-[(2-Acetyl-1H-pyrrolo[2,3-b]pyridin-5-ylamino)-methyl]-4-methyl-phenyl}-3-trifluoromethyl-benzenesulfonamide]	≥ 1000	
	≥ 50	< 50	< 50	≥ 50	≥ 50	< 50			≥ 1000		CC(=O)c1cc2cc(NCc3cc(NC(=O)c4ccn[nH]4)ccc3C)cnc2[nH]1 [OR0987, 2H-Pyrazole-3-carboxylic acid {3-[(2-acetyl-1H-pyrrolo[2,3-b]pyridin-5-ylamino)-methyl]-4-methyl-phenyl}-amide]	≥ 1000	
								≥ 1000			C#Cc1cccc(Nc2ncnc3cc(OCCOC)c(OCCOC)cc23)c1 [Erlotinib, reference compound]		
	< 50	< 50	< 50	< 50	< 50	< 50			≥ 1000		CC(=O)c1cc2cc(NCc3cc(NC(=O)C4CC4)ccc3C)cnc2[nH]1 [OR0929, Cyclopropanecarboxylic acid {3-[(2-acetyl-1H-pyrrolo[2,3-b]pyridin-5-ylamino)-methyl]-4-methyl-phenyl}-amide]	≥ 1000	
	≥ 50	< 50	< 50	< 50	≥ 50	< 50			≥ 1000		CC(=O)c1cc2cc(NCc3cc(NC(=O)c4ccc5[nH]nnc5c4)ccc3C)cnc2[nH]1 [OR0979, 1H-Benzotriazole-5-carboxylic acid {3-[(2-acetyl-1H-pyrrolo[2,3-b]pyridin-5-ylamino)-methyl]-4-methyl-phenyl}-amide]	≥ 1000	
	≥ 50	< 50	< 50	≥ 50	≥ 50	< 50	100 to 1000				CC(=O)c1cc2cc(NCc3cccc(NC(=O)c4cncc(C(F)(F)F)c4)c3)cnc2[nH]1 [OR0950, N-{3-[(2-Acetyl-1H-pyrrolo[2,3-b]pyridin-5-ylamino)-methyl]-phenyl}-5-trifluoromethyl-nicotinamide]	≥ 1000	
	< 50	< 50	< 50	< 50	< 50	< 50			≥ 1000		CC(=O)c1cc2cc(NCc3cc(NC(=O)c4ccncn4)ccc3C)cnc2[nH]1 [OR0988, Pyrimidine-4-carboxylic acid {3-[(2-acetyl-1H-pyrrolo[2,3-b]pyridin-5-ylamino)-methyl]-4-methyl-phenyl}-amide]	≥ 1000	
	≥ 50	< 50	< 50	< 50	≥ 50	< 50			≥ 1000		CC(=O)c1cc2cc(NCc3cc(NC(=O)c4ccnc(C)c4)ccc3C)cnc2[nH]1 [OR0889, N-{3-[(2-Acetyl-1H-pyrrolo[2,3-b]pyridin-5-ylamino)-methyl]-4-methyl-phenyl}-2-methyl-isonicotinamide]		100 to 1000
